What was measured:
Type in all cases: cell-based, human
[1] = system: HTT; assay: Splicing RT-qPCR assay, HTT mRNA canonical junction (CJ) and alternative junction (AJ); settings: Homo sapiens; for AC50: increase in AJ mRNA
Outline: (§1)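 Splicing switch read by one-step RT-qPCR of canonical and alternative exon junctions, housekeeper-normalized (GAPDH/GUSB/PPIA), 2^(−ΔΔCt) vs DMSO as percent response. Cells (A673 or K562) dosed 24 h, 11 points 3-fold from 10 uM, DMSO ≤0.25%.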

[2] = system: Target C; assay: HiBiT protein abundance assay, Target C; settings: Homo sapiens, K562, 24 h, Table 13A, modified K562 cells
Outline: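 Cells carrying the HiBiT knock-in were plated at 10000 cells/well, dosed with compound (10-point, 3-fold, 10 μM top final) and incubated 24 hours at 37 °C. Lytic reagent was then added and luminescence read. Percent response fed a 4PL fit for IC50.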

[3] = system: SMN2; assay: Splicing RT-qPCR panel, SMN2 canonical junction (CJ) mRNA; settings: Homo sapiens, RT-qPCR panel, canonical junction mRNA; compound concentration having 50% response in CJ decrease; read-out: SMN2 IC50 (decrease in CJ mRNA levels)
Outline: as §1

[4] = system: Target C; assay: Splicing RT-qPCR panel, Target C canonical junction (CJ) mRNA; settings: Homo sapiens, RT-qPCR panel, canonical junction mRNA; compound concentration having 50% response in CJ decrease; read-out: Target C IC50 (decrease in CJ mRNA levels)
Outline: as §1

[5] = system: HTT; assay: HiBiT protein abundance assay, HTT; settings: Homo sapiens, K562, 24 h, Table 13A, modified K562 cells
Outline: (§2)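 Target abundance was measured as HiBiT luminescence after 24 h compound treatment of tagged K562 cells. Responses were normalized between unmodified K562 and DMSO-treated tagged cells, and IC50 taken at the 50% level of a 4PL curve.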

[6] = system: MYB; assay: HiBiT protein abundance assay, MYB; settings: Homo sapiens, K562, 24 h, Table 13A, modified K562 cells
Outline: as §2

[7] = system: MYB; assay: Splicing RT-qPCR assay, MYB mRNA canonical junction (CJ) and alternative junction (AJ); settings: Homo sapiens; for AC50: increase in AJ mRNA
Outline: as §1

[8] = 24 h, decrease in CJ mRNA, A673 or K562 cells, 24 hours treatment, RT-qPCR, read-out: HTT CJ IC50
[9] = 24 h, A673 or K562 cells, 24 hours treatment, RT-qPCR
[10] = RT-qPCR panel, canonical junction mRNA, compound concentration having 50% response in CJ decrease, read-out: HTT IC50 (decrease in CJ mRNA levels)
[11] = 24 h, decrease in CJ mRNA, A673 or K562 cells, 24 hours treatment, RT-qPCR, read-out: MYB CJ IC50
[12] = RT-qPCR panel, canonical junction mRNA, compound concentration having 50% response in CJ decrease, read-out: MYB IC50 (decrease in CJ mRNA levels)

| Compound | IC50 [1, 8] [µM] | AC50 [1, 9] [µM] | IC50 [1, 10] [µM] | IC50 [2] [µM] | IC50 [3] [µM] | IC50 [4] [µM] | IC50 [5] [µM] | IC50 [6] [µM] | IC50 [7, 11] [µM] | AC50 [7, 9] [µM] | IC50 [7, 12] [µM] |
| --- | --- | --- | --- | --- | --- | --- | --- | --- | --- | --- | --- |
| c1nc2c(-c3cn[nH]c3)ccc(-c3ccc(N4CC5(CCNCC5)C4)nn3)c2s1 [Compound 197] | 1 to 10 | 1 to 10 | 1 to 10 | 1 to 10 | 1 to 10 | > 10 | 1 to 10 | 1 to 10 | > 10 | > 10 | > 10 |
| CN1C[C@@H]2CN(c3ccc(-c4ccc(-c5cn[nH]c5)c5ncsc45)nn3)C[C@@H]2C1 [Compound 198] | > 10 | > 10 | > 10 | > 10 | 0.1 to 1 | > 10 | > 10 | 1 to 10 | > 10 | > 10 | > 10 |
| c1nc2c(-c3cn[nH]c3)ccc(-c3ccc(S[C@@H]4C[C@H]5CC[C@@H](C4)N5)nn3)c2s1 [Compound 200] | > 10 | > 10 | > 10 | 1 to 10 | > 10 | > 10 | 1 to 10 | 1 to 10 | > 10 | > 10 | > 10 |
| Cc1ncc(-c2ccc(-c3ccc(N(C)C4CC(C)(C)NC(C)(C)C4)nc3)c3ncsc23)o1 [Compound 201] | 1 to 10 | 1 to 10 | 1 to 10 | > 10 | 0.1 to 1 | 1 to 10 | 1 to 10 | 1 to 10 | 1 to 10 | 1 to 10 | 1 to 10 |
| CN(c1ccc(-c2ccc(-c3cn[nH]c3)c3ncsc23)nn1)[C@H]1[C@@H]2CNC[C@@H]21 [Compound 205] | > 10 | > 10 | > 10 | 1 to 10 | 1 to 10 | > 10 | > 10 | 1 to 10 | > 10 | > 10 | > 10 |
| c1nc2c(-c3cn[nH]c3)ccc(-c3ccc(C4CCNCC4)nn3)c2s1 [Compound 206] | 1 to 10 | > 10 | 1 to 10 | > 10 | < 0.1 | > 10 | 1 to 10 | 1 to 10 | 1 to 10 | 0.1 to 1 | 1 to 10 |
| CN(c1ccc(-c2ccc(-c3cnn(C)c(=O)c3)c3scnc23)nn1)C1CC(C)(C)NC(C)(C)C1 [Compound 211] | 0.1 to 1 | 0.1 to 1 | 0.1 to 1 | 0.1 to 1 | 0.1 to 1 | 0.1 to 1 | 0.1 to 1 | 0.1 to 1 | 0.1 to 1 | 0.1 to 1 | 0.1 to 1 |
| c1nc2c(-c3cn[nH]c3)ccc(-c3ccc(NC4CCNCC4)nn3)c2s1 [Compound 214] | > 10 | 1 to 10 | > 10 | > 10 | 0.1 to 1 | > 10 | 1 to 10 | 1 to 10 | 1 to 10 | > 10 | 1 to 10 |
| c1n[nH]cc1-c1ccc(-c2ccc(N3CC4(CCCNC4)C3)nn2)c2[nH]ncc12 [Compound 218] | > 10 | > 10 | > 10 | > 10 | > 10 | > 10 | > 10 | > 10 | > 10 | > 10 | > 10 |
| c1nc2c(-c3cn[nH]c3)ccc(-c3ccc(O[C@@H]4C[C@H]5CCC[C@@H](C4)N5)nn3)c2[nH]1 [Compound 219] | 0.1 to 1 | 0.1 to 1 | 0.1 to 1 | 0.1 to 1 | < 0.1 | 0.1 to 1 | < 0.1 | 0.1 to 1 | 0.1 to 1 | 0.1 to 1 | 0.1 to 1 |
| CC1(C)CC(Oc2ccc(-c3ccc(-c4cn[nH]c4)c4cn[nH]c34)nn2)CCN1 (stereo not drawn) [Compound 220] | 1 to 10 | > 10 | 1 to 10 | > 10 | 0.1 to 1 | > 10 | 1 to 10 | 1 to 10 | 1 to 10 | > 10 | 1 to 10 |
| c1n[nH]cc1-c1ccc(-c2ccc(S[C@@H]3C[C@H]4CC[C@@H](C3)N4)nn2)c2[nH]ncc12 [Compound 221] | > 10 | > 10 | > 10 | 1 to 10 | > 10 | > 10 | 1 to 10 | 1 to 10 | > 10 | > 10 | > 10 |
| CN(c1ccc(-c2ccc(-c3cn[nH]c3)c3ncsc23)nn1)C1CCNCC1 [Compound 222] | 1 to 10 | 1 to 10 | 1 to 10 | 1 to 10 | 0.1 to 1 | 1 to 10 | 0.1 to 1 | 1 to 10 | 1 to 10 | 1 to 10 | 1 to 10 |
| [2H]C([2H])([2H])N(c1ccc(-c2ccc(-c3cn[nH]c3)c3ncsc23)nn1)C1CCNCC1 [Compound 223] | 1 to 10 | 1 to 10 | 1 to 10 | 1 to 10 | 0.1 to 1 | 1 to 10 | 1 to 10 | 1 to 10 | 1 to 10 | > 10 | 1 to 10 |
| CCN(c1ccc(-c2ccc(-c3cn[nH]c3)c3ncsc23)nn1)C1CCNCC1 [Compound 224] | > 10 | > 10 | > 10 | 1 to 10 | 1 to 10 | > 10 | 1 to 10 | 0.1 to 1 | 1 to 10 | > 10 | 1 to 10 |

Source: patent publication US20240368163A1, “COMPOUNDS AND METHODS FOR MODULATING SPLICING” (REMIX THERAPEUTICS INC., priority 2021, published 2024)
